{
  "source": "patent US20180008598A1",
  "about": "“ANTIBACTERIAL NASAL COMPOSITIONS AND RELATED METHODS” (Xlear, Inc., priority 2016, published 2018)",
  "origin": "cited, not measured here",
  "key": {"Streptococcus pneumonia": {"test_system": "Streptococcus pneumonia", "details": "in vitro, during its logarithmic growth phase"}, "dental caries": {"test_system": "dental caries", "details": "regular consumption"}},
  "data": [
    {"molecule": "OC[C@@H](O)[C@H](O)[C@@H](O)CO", "note": "[Xylitol, xylitol]", "values": [
      {"measurement": "growth of Streptococcus pneumonia", "setting": "Streptococcus pneumonia", "result": "inhibit the growth"},
      {"measurement": "incidence of dental caries", "setting": "dental caries", "result": "reduce the incidence of dental caries"}
    ]}
  ]
}
